Source: US20140256945A1, “PHOSPHONIC ACID COMPOUNDS AS SPHINGOSINE-1-PHOSPHATE RECEPTOR MODULATORS” (Allergan, Inc., priority 2013, published 2014)

These compounds were tested against T1, human S1P1 receptor (Homo sapiens, UniProt P21453) (assay: GTP γ35S binding assay for S1P1 activity). Conditions: membranes of cells stably expressing S1P1 receptor, agonist potency.
T1 construct: expressed in transfected cells; membranes used
Assay type: biochemical
Protocol: Compounds were tested for S1P1 activity using the GTP γ^35S binding assay. These compounds may be assessed for their ability to activate or block activation of the human S1P1 receptor in cells stably expressing the S1P1 receptor.
GTP γ^35S binding was measured in the medium containing (mM) HEPES 25, pH 7.4, MgCl2 10, NaCl 100, dithitothreitol 0.5, digitonin 0.003%, 0.2 nM GTP γ^35S, and 5 μg membrane protein in a volume of 150 μl. Test compounds were included in the concentration range from 0.08 to 5,000 nM unless indicated otherwise. Membranes were incubated with 100 μM 5′-adenylylimmidodiphosphate for 30 min, and subsequently with 10 μM GDP for 10 min on ice. Drug solutions and membrane were mixed, and then reactions were initiated by adding GTP γ^35S and continued for 30 min at 25° C. Reaction mixtures were filtered over Whatman GF/B filters under vacuum, and washed three times with 3 mL of ice-cold buffer (HEPES 25, pH7.4, MgCl2 10 and NaCl 100). Filters were dried and mixed with scintillant, and counted for ^35S activity using a β-counter. Agonist-induced GTP γ^35S binding was obtained by subtracting that in the absence of agonist. Binding data were analyzed using a non-linear regression method. In case of antagonist assay, the reaction mixture contained 10 nM S1P in the presence of test antagonist at concentrations ranging from 0.08 to 5000 nM.

T1 sequence (P21453 whole entry): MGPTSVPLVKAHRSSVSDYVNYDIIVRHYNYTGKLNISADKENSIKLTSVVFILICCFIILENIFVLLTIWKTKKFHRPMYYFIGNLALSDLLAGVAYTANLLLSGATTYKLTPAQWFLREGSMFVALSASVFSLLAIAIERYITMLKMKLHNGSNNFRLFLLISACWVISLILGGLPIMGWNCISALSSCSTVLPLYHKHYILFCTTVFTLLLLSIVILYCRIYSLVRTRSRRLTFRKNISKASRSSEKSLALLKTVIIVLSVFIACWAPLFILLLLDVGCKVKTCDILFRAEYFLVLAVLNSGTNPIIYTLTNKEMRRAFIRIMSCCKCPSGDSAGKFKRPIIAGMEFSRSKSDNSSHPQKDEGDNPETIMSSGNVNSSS

EC50 [nM] | Compound
6.8 | O=P(O)(O)CCCNCc1ccc(CCCCCCc2ccccc2)cc1 [Compound 9, (3-{[4-(6-phenylhexyl)benzyl]amino}propyl)phosphonic acid]
4.2 | O=P(O)(O)CCCNCc1ccc(CCCCCCc2ccccc2)c(F)c1 [Compound 5, (3-{[3-fluoro-4-(6-phenylhexyl)benzyl]amino}propyl)phosphonic acid]
4.3 | O=P(O)(O)CCCNCc1ccc(C#CCCCCc2ccccc2)c(F)c1 [Compound 1, (3-{[3-fluoro-4-(6-phenylhex-1-yn-1-yl)benzyl]amino}propyl)phosphonic acid]
105 | O=C(CCCCc1ccccc1)Nc1ccc(CNCCCP(=O)(O)O)cc1Br [Compound 11, [3-({3-bromo-4-[(5-phenylpentanoyl)amino]benzyl}amino)propyl]phosphonic acid]
26.7 | O=P(O)(O)CCCNCc1ccc(C#CCCCCc2ccccc2)cc1 [Compound 3, (3-{[4-(6-phenylhex-1-yn-1-yl)benzyl]amino}propyl)phosphonic acid]
0.7 | Cc1cc(CNCCCP(=O)(O)O)ccc1CCCCCCc1ccccc1 [Compound 6, (3-{[3-methyl-4-(6-phenylhexyl)benzyl]amino}propyl)phosphonic acid]
1.9 | O=P(O)(O)CCCNCc1cc(F)c(CCCCCCc2ccccc2)cc1F [Compound 10, (3-{[2,5-difluoro-4-(6-phenylhexyl)benzyl]amino}propyl)phosphonic acid]
22.1 | O=P(O)(O)CCCNCc1ccc(C#CCCCCc2ccccc2)c(Br)c1 [Compound 4, (3-{[3-bromo-4-(6-phenylhex-1-yn-1-yl)benzyl]amino}propyl)phosphonic acid]
4.1 | O=P(O)(O)CCCNCc1ccc(NCCCCCc2ccccc2)c(Br)c1 [Compound 12, [3-({3-bromo-4-[(5-phenylpentyl)amino]benzyl}amino)propyl]phosphonic acid]
11.2 | O=P(O)(O)CCCNCc1ccc(CCCCCCc2ccccc2)c(C(F)(F)F)c1 [Compound 7, (3-{[4-(6-phenylhexyl)-3-(trifluoromethyl)benzyl]amino}propyl)phosphonic acid]
3.4 | Cc1cc(CNCCCP(=O)(O)O)ccc1C#CCCCCc1ccccc1 [Compound 2, (3-{[3-methyl-4-(6-phenylhex-1-yn-1-yl)benzyl]amino}propyl)phosphonic acid]
0.5 | O=P(O)(O)CCCNCc1ccc(CCCCCCc2ccccc2)c(Cl)c1 [Compound 8, (3-{[3-chloro-4-(6-phenylhexyl)benzyl]amino}propyl)phosphonic acid]

What follows are compounds tested on blood lymphocytes (assay: Lymphopenia Assay in Mice). Conditions: female C57BL6 mice, 0.5 mg/Kg subcutaneous, after 5 hours.
Assay type: in vivo
Protocol: Test drugs are prepared in a solution containing 3% (w/v) 2-hydroxy propyl β-cyclodextrin (HPBCD) and 1% DMSO to a final concentration of 1 mg/ml, and subcutaneously injected to female C57BL6 mice (CHARLES RIVERS) weighing 20-25 g at the dose of 0.5 to 10 mg/Kg. Blood samples are obtained by puncturing the submandibular skin with a Goldenrod animal lancet at 5, 24, 48, and 72 hrs post drug application. Blood is collected into microvettes (SARSTEDT) containing EDTA tripotassium salt. Lymphocytes in blood samples are counted using a HEMAVET Multispecies Hematology System, HEMAVET HV950FS (Drew Scientific Inc.). • (Hale, J. et al Bioorg.& Med. Chem. Lett. 14 (2004) 3351).
A lymphopenia assay in mice; as previously described, was employed to measure the in vivo blood lymphocyte depletion after dosing with the test compound (3-{[2,5-difluoro-4-(6-phenylhexyl)benzyl]amino}propyl)phosphonic acid Compound-10. This S1P1 modulator, (3-{[2,5-difluoro-4-(6-phenylhexyl)benzyl]amino}propyl)phosphonic acid Compound-10 is useful for S1P-related diseases and exemplified by the lymphopenia in vivo response. […] Lymphocytes in blood samples were counted using a HEMAVET Multispecies Hematology System, HEMAVET HV950FS (Drew Scientific Inc.). […]

Compound | lymphocyte count (number of lymphocytes)
O=P(O)(O)CCCNCc1cc(F)c(CCCCCCc2ccccc2)cc1F [Compound 10, (3-{[2,5-difluoro-4-(6-phenylhexyl)benzyl]amino}propyl)phosphonic acid] | < 1 10^3/μL blood

Same assay, conditions: mice, 0.5 mg/kg, 5, 24, 48, 72 hours (FIG. 1)

Compound | Lymphopenia
O=P(O)(O)CCCNCc1cc(F)c(CCCCCCc2ccccc2)cc1F [Compound 10, (3-{[2,5-difluoro-4-(6-phenylhexyl)benzyl]amino}propyl)phosphonic acid] | Lymphopenia was induced
